# “Also recorded” adds a separate entry of the source.
# System: P. aeruginosa
# Assay: Colorimetric enzyme-cycling assay of NADH and NAD+ concentrations
# Assay type: cell-based, Pseudomonas aeruginosa
# Conditions: for NADH/NAD+ ratio / total concentrations of NADH and NAD+ / change in NADH/NAD+ ratio / change in total NAD(H) production: surface-attached; for NADH/NAD+ ratio / total concentrations of NADH and NAD+: mid-exponential phase; for change in NADH/NAD+ ratio / change in total NAD(H) production: rich (PS:DB) medium, carbon source 0.2% added at 3 hours, harvested after 1 additional hour
# Description: The concentrations of reduced and oxidized nicotinamide adenine dinucleotide (NADH, NAD^+) were measured using a colorimetric enzyme-cycling assay as described previously (45). P. aeruginosa strains were cultured overnight in PS:DB, diluted 1:100 into 60×15 mm plastic petri dishes (Corning, Corning, N.Y.) containing the same medium, and grown for 4 to 6 hours. Alternatively, strains were cultured overnight in minimal medium, diluted 1:100 into plastic petri dishes containing modified minimal medium with single carbon sources, and grown to an OD600 of 0.2. Cultures were harvested in a glove box chamber (Bel-Art, Wayne, N.J.) that had been vacuumed to remove air and flushed with nitrogen constantly throughout the experiment to prevent oxidation of NADH. Subsequent steps were performed and solutions were prepared in the glove box unless otherwise indicated. Solutions containing 0.05 to 1 μM of NADH (Sigma) or NAD^+ (Sigma) were included as calibration controls.
# Planktonic cells were isolated from petri dishes, pelleted by centrifugation at 16,000×g for 1 min, the residual supernatant was discarded and the pellet was immediately resuspended in 0.2 M NaOH or HCl to extract NADH or NAD^+, respectively, as described previously (45, 46). Surface-attached cells were harvested by aspirating planktonic cells from petri dishes, washing with DB buffer or modified minimal medium with no carbon source for strains cultured in PS:DB or modified minimal medium A containing single carbon sources, respectively, adding 0.2 M NaOH or HCl, and scraping surfaces with a cell scraper (Sarstedt, Nümbrecht, Germany). As a control, the Δphz12 strain was cultured overnight in modified MOPS synthetic medium (46), diluted 1:100 in the same medium in culture tubes for 1 to 4 hours, pelleted by centrifugation, resuspended in 0.2 M NaOH or HCl, as described previously (46). The resuspensions in NaOH or HCl were neutralized using equal volume of 0.1 M HCl or NaOH, respectively, and portions were assayed for protein content, NADH, and NAD^+. Resuspensions were assayed for protein content using a BCA assay kit (ThermoFisher Scientific, Waltham, Mass.) using a 50:1 mixture of solutions A and B from the kit. Solutions were incubated at 37° C. for 30 min and measured for absorbance at 562 nm. Resuspensions that were not used for the BCA assay were normalized by protein content by diluting in Millipore-filtered water.
# NADH and NAD^+ concentrations were determined by following the protocol described previously (45). Briefly, normalized resuspensions were centrifuged at 16,000×g for 10 minutes at 4° C. to remove cell debris and mixed with a reaction mixture containing 40 mM EDTA, 1 M bicine (Sigma), 4.2 mM 3-(4,5-dimethylthiazol-2-yl)-2,5-diphenyltetrazolium bromide (Sigma), 16.6 mM phenazine ethosulfate (Sigma), 1 mg/mL alcohol dehydrogenase (Sigma), and ethanol, and the absorbance at 570 nm of the solution was measured in a 96-well plate (Corning Corning, N.Y.) at 30° C. every 30 seconds for 30 minutes using a BioTek Synergy HTX reader (BioTek, Winooski, Vt.). The reaction mixture and the normalized resuspensions were aliquoted and mixed inside the glove box. The centrifugation and absorbance measurements were performed outside of the glove box. The absorbance per unit time was determined by fitting data on the initial velocity of enzyme activity, acquired between 2 to 10 minutes of the absorbance measurements. The absorbances per unit time for the NADH and NAD^+ calibration controls were linearly fit for the full range of calibration concentrations to establish a linear equation that relates the absorbance per unit time and NAD(H) concentration. The NAD(H) concentrations of the planktonic and surface-attached cell resuspensions were determined by inputting the respective absorbance per unit time fits of the samples into these equations. […]
# [1] = modified minimal medium, single carbon source at 0.2%
# [2] = planktonic cells, modified minimal medium, single carbon source at 0.2%
Compound,NADH/NAD+ ratio [1],total concentrations of NADH and NAD+ [1],change in NADH/NAD+ ratio,change in total NAD(H) production,NAD(H) concentration relative to glycerol [2],NADH/NAD+ ratio relative to glycerol [2]
OCC(O)CO [glycerol],increasing ratios,intermediate,smallest changes,relatively small impacts,–,–
O=C(O)CC(O)(CC(=O)O)C(=O)O [citrate],increasing ratios,intermediate,greatest increases,greatest decreases; also recorded: decreased,slightly lower,slightly greater

# Reference: patent US20220287995A1, “COMPOSITIONS AND METHODS FOR INHIBITING BACTERIAL VIRULENCE AND FLIM-BASED DEVICE AND METHOD FOR ANTIBIOTIC SUSCEPTIBILITY TESTING” (THE REGENTS OF THE UNIVERSITY OF CALIFORNIA, priority 2019, published 2022)
